Data: US9497970B2, “Pesticide compounds” (priority 2013, dated 2016)

Legend:
Format in all cases: in vivo
[1] = test system: Boll Weevil (Anthonomus grandis); test: B.3 Boll Weevil (Anthonomus grandis), microtiter plate insect diet; conditions: 120 h, 800 ppm, sprayed onto insect diet, 5 days, in comparison with untreated controls, read-out: mortality (egg and larval)
Procedure: B.3 Boll Weevil (Anthonomus grandis)
For evaluating control of boll weevil (Anthonomus grandis) the test unit consisted of 96-well-microtiter plates containing an insect diet and 5-10 A. grandis eggs.
(§1) The compounds were formulated using a solution containing 75% v/v water and 25% v/v DMSO. Different concentrations of formulated compounds were sprayed onto the insect diet at 5 μl, using a custom built micro atomizer, at two replications.
After application, microtiter plates were incubated at about 25±1° C. and about 75±5% relative humidity for 5 days. Egg and larval mortality was then visually assessed.

[2] = test system: Tobacco Budworm (Heliothis virescens); test: B.7 Tobacco Budworm (Heliothis virescens) I, microtiter plate insect diet; conditions: 120 h, 800 ppm, sprayed onto insect diet, 5 days, in comparison with untreated controls, read-out: mortality (egg and larval)
Procedure: B.7 Tobacco Budworm (Heliothis virescens) I
as §1, with “For evaluating control of tobacco budworm (Heliothis virescens) the test unit consisted of 96-well-microtiter plates containing an insect diet and 15-25 H. virescens eggs. The” for “The”, “at 10” for “at 5”
(§2) After application, microtiter plates were incubated at about 28±1° C. and about 80±5% relative humidity for 5 days. Egg and larval mortality was then visually assessed.

[3] = test system: Diamond Back Moth (Plutella xylostella); test: B.1 Diamond Back Moth (Plutella xylostella), cabbage leaf dip; conditions: foliar, 500 ppm, 3rd instar larvae on dipped cabbage leaves, 72 hours after treatment, in comparison with untreated controls, read-out: mortality
Procedure: B.1 Diamond Back Moth (Plutella xylostella)
The active compound was dissolved at the desired concentration in a mixture of 1:1 (vol:vol) distilled water:aceteone. Surfactant (Kinetic HV) was added at a rate of 0.01% (vol/vol). The test solution was prepared at the day of use.
Leaves of cabbage were dipped in test solution and air-dried. Treated leaves were placed in petri dishes lined with moist filter paper and inoculated with ten 3rd instar larvae. Mortality was recorded 72 hours after treatment. Feeding damages were also recorded using a scale of 0-100%.

[4] = test system: Mediterranean Fruitfly (Ceratitis capitata); test: B.6 Mediterranean Fruitfly (Ceratitis capitata), microtiter plate insect diet; conditions: 120 h, 800 ppm, sprayed onto insect diet, 5 days, in comparison with untreated controls, read-out: mortality (egg and larval)
Procedure: B.6 Mediterranean Fruitfly (Ceratitis capitata)
For evaluating control of Mediterranean fruitfly (Ceratitis capitata) the test unit consisted of microtiter plates containing an insect diet and 50-80 C. capitata eggs.
as §1, §2

SMILES | mortality at 800 ppm [1] | mortality at 800 ppm [2] | mortality at 500 ppm [3] | mortality at 800 ppm [4]
O=C(N/N=C/c1ccc2c(ccc3c2ncn3-c2ccc(OC(F)(F)F)cc2)c1)Nc1ccccc1 [C-89, 1-phenyl-3-[(E)-[3-[4-(trifluoromethoxy)phenyl]benzo[e]benzimidazol-7-yl]methyleneamino]urea] | ≥ 75% | ≥ 75% | ≥ 75% | –
FC(F)(F)Oc1ccc(-n2cnc3c4ccc(/C=N/NC(=S)Nc5ccccc5I)cc4ccc32)cc1 [C-64, 1-(2-iodophenyl)-3-[[3-[4-(trifluoromethoxy)phenyl]-5H-benzo[e]benzimidazol-7-ylidene]methylimino] thiourea] | ≥ 75% | ≥ 75% | – | ≥ 75%
Cc1cccc(NC(=S)N/N=C/c2ccc3c(ccc4c3ncn4-c3ccc(OC(F)(F)F)cc3)c2)c1C [C-28, 1-(2,3-dimethylphenyl)-3-[(E)-[3-[4-(trifluoromethoxy)phenyl]benzo[e]benzimidazol-7-yl]methyleneamino] thiourea] | ≥ 75% | ≥ 75% | – | ≥ 75%
Cc1cc(Br)cc(C)c1NC(=S)N/N=C/c1ccc2c(c1)CCc1c-2nnn1-c1ccc(OC(F)(F)F)cc1 [C-33, 1-(4-bromo-2,6-dimethyl-phenyl)-3-[(E)-[3-[4-(trifluoromethoxy)phenyl]-4,5-dihydrobenzo[e]benzotriazol-7-yl]methyleneamino]thiourea] | ≥ 75% | ≥ 75% | – | –
Cn1nc2c(ccc3cc(/C=N/NC(=S)Nc4ncccc4I)ccc32)c1-c1ccc(OC(F)(F)F)cc1 [C-102, 1-(3-iodo-2-pyridyl)-3-[(E)-[2-methyl-3-[4-(trifluoromethoxy)phenyl]benzo[g]indazol-7-yl]methyleneamino]thiourea] | ≥ 75% | – | – | –
Cn1nc2c(ccc3cc(/C=N/NC(=S)Nc4c(Br)cccc4Br)ccc32)c1-c1ccc(OC(F)(F)F)cc1 [C-98, 1-(2,6-dibromophenyl)-3-[(E)-[2-methyl-3-[4-(trifluoromethoxy)phenyl]benzo[g]indazol-7-yl]methyleneamino] thiourea] | ≥ 75% | ≥ 75% | ≥ 75% | ≥ 75%
CCc1cccc(CC)c1NC(=S)N/N=C/c1ccc2c(ccc3c2nnn3-c2ccc(OC(F)(F)F)cc2)c1 [C-61, 1-(2,6-diethylphenyl)-3-[(E)-[3-[4-(trifluoromethoxy)phenyl]benzo[e]benzotriazol-7-yl]methyleneamino] thiourea] | ≥ 75% | ≥ 75% | – | –
CN1N=C2c3ccc(/C=N/NC(=S)Nc4c(Cl)cccc4Cl)cc3CCC2C1c1ccc(OC(F)(F)F)cc1 (centres unmarked) [C-95, 1-(2,6-dichlorophenyl)-3-[(E)-[2-methyl-3-[4-(trifluoromethoxy)phenyl]-3,3a,4,5-tetrahydrobenzo[g]indazol-7-yl]methyleneamino]thiourea] | ≥ 75% | ≥ 75% | ≥ 75% | –
Fc1ccccc1NC(=S)N/N=C/c1ccc2c(ccc3c2ncn3-c2ccc(OC(F)(F)F)cc2)c1 [C-40, 3-(2-fluorophenyl)-1-[[3-[4-(trifluoromethoxy)phenyl]-5H-benzo[e]benzimidazol-7-ylidene]methylimino] isothiourea] | ≥ 75% | – | ≥ 75% | ≥ 75%
O=C(/N=C1\SCC(=O)N1c1ccccc1C(F)(F)F)Nc1ccc2c(ccc3c2ncn3-c2ccc(OC(F)(F)F)cc2)c1 [C-116, (1Z)-1-[4-oxo-3-[2-(trifluoromethyl)phenyl]thiazolidin-2-ylidene]-3-[3-[4-(trifluoromethoxy)phenyl]-8H-benzo[e]benzimidazol-7-ylidene]urea] | ≥ 75% | ≥ 75% | – | –
COc1ccccc1NC(=S)N/N=C/c1ccc2c(ccc3c2ncn3-c2ccc(OC(F)(F)F)cc2)c1 [C-26, 3-(2-methoxyphenyl)-1-[[3-[4-(trifluoromethoxy)phenyl]-9aH-benzo[e]benzimidazol-7-ylidene]methylimino] isothiourea] | ≥ 75% | ≥ 75% | ≥ 75% | ≥ 75%
FC(F)(F)Oc1ccc(-n2ncc3c4ccc(/C=N/NC(=S)Nc5c(Cl)cccc5Cl)cc4ccc32)cc1 [C-49, 1-(2,6-dichlorophenyl)-3-[(E)-[3-[4-(trifluoromethoxy)phenyl]benzo[e]indazol-7-yl]methyleneamino]thiourea] | ≥ 75% | ≥ 75% | – | –
FC(F)(F)Oc1ccc(-n2cnc3c4ccc(/C=N/NC(=S)Nc5ccccc5Br)cc4ccc32)cc1 [C-67, 1-(2-bromophenyl)-3-[[3-[4-(trifluoromethoxy)phenyl]-5H-benzo[e]benzimidazol-7-ylidene]methylimino] thiourea] | ≥ 75% | ≥ 75% | ≥ 75% | ≥ 75%
FC(F)(F)Oc1ccc(-n2cnc3c4ccc(/C=N/NC(=S)Nc5cc(Cl)ccc5Cl)cc4ccc32)cc1 [C-42, 1-(2,5-dichlorophenyl)-3-[(E)-[3-[4-(trifluoromethoxy)phenyl]benzo[e]benzimidazol-7-yl]methyleneamino] thiourea] | ≥ 75% | – | – | –
Cc1cccc(C)c1NC(=S)N/N=C/c1ccc2c(ccc3c2nnn3-c2ccc(OC(F)(F)F)cc2)c1 [C-54, 1-(2,6-dimethylphenyl)-3-[(E)-[3-[4-(trifluoromethoxy)phenyl]benzo[e]benzotriazol-7-yl]methyleneamino] thiourea] | – | ≥ 75% | – | –
CCc1cccc(C)c1NC(=S)N/N=C/c1ccc2c(ccc3c2nnn3-c2ccc(OC(F)(F)F)cc2)c1 [C-62, 1-(2-ethyl-6-methyl-phenyl)-3-[(E)-[3-[4-(trifluoromethoxy)phenyl]benzo[e]benzotriazol-7-yl]methyleneamino] thiourea] | – | ≥ 75% | – | –
Cc1cccnc1NC(=S)N/N=C/c1ccc2c(ccc3c2ncn3-c2ccc(OC(F)(F)F)cc2)c1 [C-63, 1-(3-methyl-2-pyridyl)-3-[(E)-[3-[4-(trifluoromethoxy)phenyl]benzo[e]benzimidazol-7-yl]methyleneamino] thiourea] | ≥ 75% | ≥ 75% | – | ≥ 75%
FC(F)(F)Oc1ccc(-n2cnc3c4ccc(/C=N/NC(=S)Nc5cccnc5)cc4ccc32)cc1 [C-73, 1-(3-pyridyl)-3-[(E)-[3-[4-(trifluoromethoxy)phenyl]benzo[e]benzimidazol-7-yl]methyleneamino] thiourea] | ≥ 75% | – | – | –
FC(F)(F)Oc1ccc(-n2cnc3c4ccc(/C=N/NC(=S)Nc5cccc6ccccc56)cc4ccc32)cc1 [C-29, 1-(2H-naphthalen-1-ylidene)-3-[[3-[4-(trifluoromethoxy)phenyl]-9aH-benzo[e]benzimidazol-7-ylidene]methylimino] thiourea] | ≥ 75% | ≥ 75% | ≥ 75% | ≥ 75%
CCc1ccccc1NC(=S)N/N=C/c1ccc2c(c1)CCc1c-2nnn1-c1ccc(OC(F)(F)F)cc1 [C-32, 1-(2-ethylphenyl)-3-[[3-[4-(trifluoromethoxy)phenyl]-5,6-dihydro-4H-benzo[e]benzotriazol-7-ylidene]methylimino]thiourea] | ≥ 75% | – | – | –
FC(F)(F)Oc1ccc(-n2cnc3c4ccc(/C=N/NC(=S)Nc5ccc(Cl)cc5Cl)cc4ccc32)cc1 [C-27, 1-(2,4-dichlorophenyl)-3-[(E)-[3-[4-(trifluoromethoxy)phenyl]benzo[e]benzimidazol-7-yl]methyleneamino]thiourea] | ≥ 75% | – | ≥ 75% | ≥ 75%
Cc1c(Cl)cccc1NC(=S)N/N=C/c1ccc2c(ccc3c2ncn3-c2ccc(OC(F)(F)F)cc2)c1 [C-39, 1-(3-chloro-2-methyl-phenyl)-3-[(E)-[3-[4-(trifluoromethoxy)phenyl]benzo[e]benzimidazol-7-yl]methyleneamino] thiourea] | ≥ 75% | ≥ 75% | – | ≥ 75%
Cc1cccc(C)c1NC(=S)N/N=C/c1ccc2c(c1)CCc1c-2nnn1-c1ccc(OC(F)(F)F)cc1 [C-11, 1-(2,6-dimethylphenyl)-3-[(E)-[3-[4-(trifluoromethoxy)phenyl]-4,5-dihydrobenzo[e]benzotriazol-7-yl]methyleneamino]thiourea] | – | ≥ 75% | – | ≥ 75%
C/C(=N\NC(=S)Nc1c(Cl)cccc1Cl)c1ccc2c(ccc3c2ncn3-c2ccc(OC(F)(F)F)cc2)c1 [C-59] | ≥ 75% | ≥ 75% | – | ≥ 75%
